# Experimental data published in patent US20120029187A1, “HALOALKYLSULFONANILIDE DERIVATIVE” (Nissan Chemical Industries, Ltd., priority 2009, published 2012).
# Key:
# Format in all cases: in vivo
# [1] = test system: velvetleaf; assay: Test Example 4: herbicidal effect in foliage treatment; conditions: dose 3.2 g/a, three weeks after the application
# Summary of the method: (§1)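 A uniform foliar spray of emulsifiable concentrate, diluted with water to give the stated g/a dose, was applied to plants raised for 14 days from seed in sterilized diluvial soil at 25 to 30° C. Herbicidal effects were scored three weeks later.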
# [2] = test system: barnyardgrass; assay: as above; conditions: dose 3.2 g/a, three weeks after the application
# Summary of the method: as §1
# [3] = test system: posumbu knotweed; assay: as above; conditions: dose 3.2 g/a, three weeks after the application
# Summary of the method: as §1
# [4] = test system: large crabgrass; assay: as above; conditions: dose 3.2 g/a, three weeks after the application
# Summary of the method: as §1
# [5] = test system: Italian ryegrass; assay: as above; conditions: dose 3.2 g/a, three weeks after the application
# Summary of the method: as §1
# [6] = test system: redroot pigweed; assay: as above; conditions: dose 3.2 g/a, three weeks after the application
# Summary of the method: as §1
# [7] = test system: common lambsquater; assay: as above; conditions: dose 3.2 g/a, three weeks after the application
# Summary of the method: as §1
# [8] = test system: wild oat; assay: as above; conditions: dose 3.2 g/a, three weeks after the application
# Summary of the method: as §1
# [9] = test system: water foxtail; assay: as above; conditions: dose 3.2 g/a, three weeks after the application
# Summary of the method: as §1
# [10] = test system: common chickweed; assay: as above; conditions: dose 3.2 g/a, three weeks after the application
# Summary of the method: as §1
# [11] = test system: beadstraw; assay: as above; conditions: dose 3.2 g/a, three weeks after the application
# Summary of the method: as §1
# [12] = test system: common ragweed; assay: as above; conditions: dose 3.2 g/a, three weeks after the application
# Summary of the method: as §1
# [13] = test system: giant foxtail; assay: as above; conditions: dose 3.2 g/a, three weeks after the application
# Summary of the method: as §1
# [14] = test system: velvetleaf; assay: Test Example 3: herbicidal effects in soil treatment; conditions: dose 3.2 g/a
# Summary of the method: (§2)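 Seeds were sown in sterilized diluvial soil and covered with about 1.5 cm of soil. Compounds, formulated as emulsifiable concentrates and diluted with water, were sprayed evenly over the soil surface at set doses in g/a. Herbicidal effect was scored on a rating scale three weeks later.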
# [15] = test system: barnyardgrass; assay: as above; conditions: dose 3.2 g/a
# Summary of the method: as §2
# [16] = test system: posumbu knotweed; assay: as above; conditions: dose 3.2 g/a
# Summary of the method: as §2
# [17] = test system: large crabgrass; assay: as above; conditions: dose 3.2 g/a
# Summary of the method: as §2
# [18] = test system: Italian ryegrass; assay: as above; conditions: dose 3.2 g/a
# Summary of the method: as §2
# [19] = test system: redroot pigweed; assay: as above; conditions: dose 3.2 g/a
# Summary of the method: as §2
# [20] = test system: common lambsquater; assay: as above; conditions: dose 3.2 g/a
# Summary of the method: as §2
# [21] = test system: wild oat; assay: as above; conditions: dose 3.2 g/a
# Summary of the method: as §2
# [22] = test system: water foxtail; assay: as above; conditions: dose 3.2 g/a
# Summary of the method: as §2
# [23] = test system: common chickweed; assay: as above; conditions: dose 3.2 g/a
# Summary of the method: as §2
# [24] = test system: common ragweed; assay: as above; conditions: dose 3.2 g/a
# Summary of the method: as §2
# [25] = test system: giant foxtail; assay: as above; conditions: dose 3.2 g/a
# Summary of the method: as §2
# [26] = test system: transplanted rice; assay: Test Example 1: preemergence treatment under submerged conditions, effect on crop; conditions: dose 2.52 g/a
# Summary of the method: (§3)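 Scoring 0 (<5% mortality) to 5 (≥90%) was done three weeks after preemergence application to the water surface of submerged (4 cm) alluvial soil, doses given as g per are. Weeds were seeded and 2.5-leaf rice transplanted on the treatment day; greenhouse at 25–30 °C.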
# [27] = test system: barnyardgrass; assay: Test Example 2: herbicidal effects during the vegetation period under submerged conditions; conditions: treatment during the vegetation period under submerged conditions; dose 2.52 g/a
# Summary of the method: (§4)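 Barnyardgrass, bulrush and ducksalad were co-sown in alluvial soil flooded to 4 cm and grown in a greenhouse at 25 to 30° C. At the 1- or 2-leaf stage, water-diluted emulsifiable concentrates went onto the water surface at set doses (g/a). Herbicidal effect was scored three weeks later on a graded scale.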
# [28] = test system: ducksalad; assay: as above; conditions: treatment during the vegetation period under submerged conditions; dose 2.52 g/a
# Summary of the method: as §4
# [29] = test system: bulrush; assay: as above; conditions: treatment during the vegetation period under submerged conditions; dose 2.52 g/a
# Summary of the method: as §4
# [30] = test system: barnyardgrass; assay: Test Example 1: herbicidal effects in preemergence treatment under submerged conditions; conditions: dose 2.52 g/a
# Summary of the method: as §3
# [31] = test system: ducksalad; assay: as above; conditions: dose 2.52 g/a
# Summary of the method: as §3
# [32] = test system: bulrush; assay: as above; conditions: dose 2.52 g/a
# Summary of the method: as §3
Compound,"I: velvetleaf, herbicidal effect [1]","A: barnyardgrass, herbicidal effect [2]","M: posumbu knotweed, herbicidal effect [3]","D: large crabgrass, herbicidal effect [4]","H: Italian ryegrass, herbicidal effect [5]","K: redroot pigweed, herbicidal effect [6]","L: common lambsquater, herbicidal effect [7]","F: wild oat, herbicidal effect [8]","G: water foxtail, herbicidal effect [9]","N: common chickweed, herbicidal effect [10]","O: beadstraw, herbicidal effect [11]","J: common ragweed, herbicidal effect [12]","E: giant foxtail, herbicidal effect [13]","herbicidal effect, I: velvetleaf [14]","herbicidal effect, A: barnyardgrass [15]","herbicidal effect, M: posumbu knotweed [16]","herbicidal effect, D: large crabgrass [17]","herbicidal effect, H: Italian ryegrass [18]","herbicidal effect, K: redroot pigweed [19]","herbicidal effect, L: common lambsquater [20]",further results
CCN1COCN(Cc2ccccc2NS(=O)(=O)C(F)(F)F)C1=O [IV-5],5 (mortality of 90% or above (nearly complete death)),5 (mortality of 90% or above (nearly complete death)),0 (mortality of less than 5% (almost ineffective)),4 (mortality of at least 70% and less than 90%),3 (mortality of at least 40% and less than 70%),0 (mortality of less than 5% (almost ineffective)),3 (mortality of at least 40% and less than 70%),0 (mortality of less than 5% (almost ineffective)),5 (mortality of 90% or above (nearly complete death)),4 (mortality of at least 70% and less than 90%),3 (mortality of at least 40% and less than 70%),3 (mortality of at least 40% and less than 70%),4 (mortality of at least 70% and less than 90%),5 (mortality of 90% or above (nearly complete death)),5 (mortality of 90% or above (nearly complete death)),4 (mortality of at least 70% and less than 90%),5 (mortality of 90% or above (nearly complete death)),4 (mortality of at least 70% and less than 90%),3 (mortality of at least 40% and less than 70%),3 (mortality of at least 40% and less than 70%),"herbicidal effect, F: wild oat [21]: 2 (mortality of at least 20% and less than 40%); herbicidal effect, G: water foxtail [22]: 5 (mortality of 90% or above (nearly complete death)); herbicidal effect, N: common chickweed [23]: 5 (mortality of 90% or above (nearly complete death)); herbicidal effect, J: common ragweed [24]: 0 (mortality of less than 5% (almost ineffective)); herbicidal effect, E: giant foxtail [25]: 5 (mortality of 90% or above (nearly complete death)); a: transplanted rice, effect on crop (evaluation scale 0-5) [26]: 0 (mortality of less than 5% (almost ineffective)); A: barnyardgrass, herbicidal effect (evaluation scale 0-5) [27]: 5 (mortality of 90% or above (nearly complete death)); C: ducksalad, herbicidal effect (evaluation scale 0-5) [28]: 5 (mortality of 90% or above (nearly complete death)); B: bulrush, herbicidal effect (evaluation scale 0-5) [29]: 5 (mortality of 90% or above (nearly complete death)); A: barnyardgrass, herbicidal effect (evaluation scale 0-5) [30]: 5 (mortality of 90% or above (nearly complete death)); C: ducksalad, herbicidal effect (evaluation scale 0-5) [31]: 4 (mortality of at least 70% and less than 90%); B: bulrush, herbicidal effect (evaluation scale 0-5) [32]: 5 (mortality of 90% or above (nearly complete death))"
CCN1COCN(Cc2ccccc2N(C(=O)OCCCl)S(=O)(=O)C(F)(F)F)C1=O [IV-7],4 (mortality of at least 70% and less than 90%),4 (mortality of at least 70% and less than 90%),0 (mortality of less than 5% (almost ineffective)),4 (mortality of at least 70% and less than 90%),3 (mortality of at least 40% and less than 70%),0 (mortality of less than 5% (almost ineffective)),4 (mortality of at least 70% and less than 90%),0 (mortality of less than 5% (almost ineffective)),5 (mortality of 90% or above (nearly complete death)),4 (mortality of at least 70% and less than 90%),3 (mortality of at least 40% and less than 70%),3 (mortality of at least 40% and less than 70%),4 (mortality of at least 70% and less than 90%),5 (mortality of 90% or above (nearly complete death)),5 (mortality of 90% or above (nearly complete death)),0 (mortality of less than 5% (almost ineffective)),5 (mortality of 90% or above (nearly complete death)),4 (mortality of at least 70% and less than 90%),1 (mortality of at least 5% and less than 20%),4 (mortality of at least 70% and less than 90%),"herbicidal effect, F: wild oat [21]: 1 (mortality of at least 5% and less than 20%); herbicidal effect, G: water foxtail [22]: 5 (mortality of 90% or above (nearly complete death)); herbicidal effect, N: common chickweed [23]: 4 (mortality of at least 70% and less than 90%); herbicidal effect, J: common ragweed [24]: 0 (mortality of less than 5% (almost ineffective)); herbicidal effect, E: giant foxtail [25]: 3 (mortality of at least 40% and less than 70%); a: transplanted rice, effect on crop (evaluation scale 0-5) [26]: 0 (mortality of less than 5% (almost ineffective)); A: barnyardgrass, herbicidal effect (evaluation scale 0-5) [27]: 5 (mortality of 90% or above (nearly complete death)); C: ducksalad, herbicidal effect (evaluation scale 0-5) [28]: 5 (mortality of 90% or above (nearly complete death)); B: bulrush, herbicidal effect (evaluation scale 0-5) [29]: 5 (mortality of 90% or above (nearly complete death)); A: barnyardgrass, herbicidal effect (evaluation scale 0-5) [30]: 5 (mortality of 90% or above (nearly complete death)); C: ducksalad, herbicidal effect (evaluation scale 0-5) [31]: 4 (mortality of at least 70% and less than 90%); B: bulrush, herbicidal effect (evaluation scale 0-5) [32]: 5 (mortality of 90% or above (nearly complete death))"
